# System: 628569-122-R-J1-PDC complex spheroid viability
# Test: Anticancer human tumor 628569-122-R-J1-PDC patient-derived head and neck squamous carcinoma cell line growth inhibition [CLK]
# Conditions: for IC50: curve of first compound; for viability, T/C: stronger effect = lower value
# Text: A high-throughput screen of multi-cell type tumor spheroids was designed to identify active combinations of […] and targeted small molecules. Complex spheroids include a stromal component modeled by human endothelial cells (HUVEC) and fibroblasts modeled by human mesenchymal stem cells (MSCs). The concentration ranges selected for each drug and investigational agent were based upon clinically achievable concentrations if the clinical Cmax of the agent was known.
# Compounds. The drugs and investigational agents: cirtuvivint (SM08502; NSC835563), CC-671 (NSC850746), vemurafenib (NSC761431), tapotoclax (NSC804041), sotorasib (NSC818433), adagrasib (NSC831453), MRTX-1133 (NSC836407), BAY2416964 (NSC825713), copanlisib (NSC816437), inavolisib (NSC800729), abemaciclib (NSC768073), osimertinib (NSC779217), entinostat (NSC756642), eltanexor (KPT-8602, NSC794443), venetoclax (NSC766270), ceralasertib (NSC777638), bortezomib (NSC756655), olaparib (NSC753686), talazoparib (NSC767125), alisertib (NSC759677), peposertib (NSC802822), gemcitabine (NSC613327), 5-fluorouracil (NSC19893), SN-38 (NSC673596), oxaliplatin (NSC266046), paclitaxel (NSC125973), and doxorubicin (NSC123127), were obtained from the National Cancer Institute (NCI) Developmental Therapeutics Program Chemical Repository. The FDA-approved anticancer drug set is available from the Developmental Therapeutics Program at https://dtp.cancer.gov/organization/dscb/obtaining/available plates.htm. […] The stock solutions were prepared in dimethyl sulfoxide (DMSO, Sigma-Aldrich, St. Louis, MO, cat. D2650), except for the platinum complexes which were prepared in saline (Quality Biological, Gaithersburg, MD, cat. 114-055-101), at 800-fold the tested concentration and stored at -70 degrees C prior to their use. All drugs and investigational agents were tested over a range starting from a high concentration at or near the clinical Cmax and decreasing in half-log increments. If the clinical Cmax for an agent had not been determined, the highest concentration tested was 10 microM.
# Cell Culture. All cells were maintained in an incubator at 37 degrees C and 5% CO2 with 95% humidity. The PDC lines were cultured according to standard operating procedures established by the NCI PDMR. Briefly, all PDCs were thawed and cultured in Matrigel-coated flasks prepared with a working solution of 1X Ham's F-12 nutrient mix, without supplementation (Invitrogen, Waltham, MA, cat. 11765054), 100 U/mL penicillin-streptomycin (Invitrogen, cat. 15140122), and 2.5% Matrigel (Corning Inc., Corning, NY, cat. 354248) for the first three passages. The 947758-054-R-J2-PDC line was cultured in 6B/Colon 1A media, which includes advanced DMEM/F-12 (Thermo Fisher Scientific, cat. 12634028), 10 mM HEPES (Thermo Fisher Scientific, cat. 15630080), 1X GlutaMAX supplement (Thermo Fisher Scientific, cat. 35050061), 0.1 mg/mL primocin (InvivoGen, cat. ant-pm-2), 10% defined fetal bovine serum, heat inactivated (HyClone Laboratories Inc., cat. SH30070.03HI), 1.25 mM N-Acetyl-L-cysteine (Sigma-Aldrich, cat. A9165), 10 mM nicotinamide (Sigma-Aldrich, cat. N0636), 1X B-27 supplement (Thermo Fisher Scientific, cat. 17504044), 1X N-2 supplement (Thermo Fisher Scientific, cat. 17502048), and 10 microM Y-27632 dihydrochloride (Tocris Bioscience, cat. 1254). The 876862-298-R-J1-PDC was cultured in 6E media, which includes all 6B/Colon 1A media components plus 50% L-WRN conditioned media (ATCC, cat. CRL-3276), 50 ng/mL recombinant human EGF recombinant protein (hEGF; Thermo Fisher Scientific, cat. PHG0311), 10 ng/mL recombinant human fibroblast growth factor 10 (hGFG-10; PeproTech, cat. 100-26), 1 ng/mL recombinant human fibroblast growth factor 2 (hFGF-2; PeproTech, cat. 100-18B), and 1 µM prostaglandin E2 (PGE2; Tocris, cat. 2296). The 227483-062-R1-J1-PDC line was cultured in Panc media, containing all 6E components except hFGF-2, with the addition of 500 nM SB-431542 (Selleckchem, cat. S1067) and 10 nM gastrin (Tocris, cat. 3006). […]
# [1] = second compound 0.0316 µM, first compound 0.0316 µM
# [2] = second compound 0.0316 µM, first compound 0.1 µM
# [3] = second compound 0.0316 µM, first compound 0.316 µM
# [4] = second compound 0.0316 µM, first compound 1 µM
# [5] = second compound 0.0316 µM, first compound 3.16 µM
# [6] = second compound 0.0316 µM, first compound 10 µM
# [7] = second compound 0.1 µM, first compound 0.0316 µM
# [8] = second compound 0.1 µM, first compound 0.1 µM
# [9] = second compound 0.1 µM, first compound 0.316 µM
# [10] = second compound 0.1 µM, first compound 1 µM
# [11] = second compound 0.1 µM, first compound 3.16 µM
# [12] = second compound 0.1 µM, first compound 10 µM
# [13] = second compound 0.316 µM, first compound 0.0316 µM
# [14] = second compound 0.316 µM, first compound 0.1 µM
# [15] = second compound 0.316 µM, first compound 0.316 µM
# [16] = second compound 0.316 µM, first compound 1 µM
# [17] = second compound 0.316 µM, first compound 3.16 µM
# [18] = second compound 0.316 µM, first compound 10 µM
# [19] = second compound 1 µM, first compound 0.0316 µM
# [20] = second compound 1 µM, first compound 0.1 µM
# [21] = second compound 1 µM, first compound 0.316 µM
# [22] = second compound 1 µM, first compound 1 µM
# [23] = second compound 1 µM, first compound 3.16 µM
# [24] = second compound 1 µM, first compound 10 µM
# [25] = second compound 3.16 µM, first compound 0.0316 µM
# [26] = second compound 3.16 µM, first compound 0.1 µM
# [27] = second compound 3.16 µM, first compound 0.316 µM
# [28] = second compound 3.16 µM, first compound 1 µM
# [29] = second compound 3.16 µM, first compound 3.16 µM
# [30] = second compound 3.16 µM, first compound 10 µM
# [31] = second compound 10 µM, first compound 0.0316 µM
# [32] = second compound 10 µM, first compound 0.1 µM
# [33] = second compound 10 µM, first compound 0.316 µM
# [34] = second compound 10 µM, first compound 1 µM
# [35] = second compound 10 µM, first compound 3.16 µM
# [36] = second compound 10 µM, first compound 10 µM
# 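Further: spheroids exposed to agents for seven days before readout.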
# 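Wherever viability, T/C is given: 100% = DMSO vehicle control viability.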
compound,measurement,setting,value
COc1ccc([C@@H](O)c2cc(-c3ncnc4cc(N5CCOCC5)ccc34)c(F)cc2Cl)nn1 + CN1CCN(c2cc(C(=O)Nc3cc4cc(-c5cnn(C)c5)ccc4cn3)ccn2)CC1,IC50,second compound 0.0316 µM,2100 nM
same,IC50,second compound 0.1 µM,314 nM
same,IC50,second compound 0.316 µM,< 31.6 nM
same,IC50,second compound 1 µM,< 31.6 nM
same,IC50,second compound 3.16 µM,< 31.6 nM
same,IC50,second compound 10 µM,< 31.6 nM
same,"viability, T/C",[1],95.9%
same,"viability, T/C",[2],88.2%
same,"viability, T/C",[3],68.8%
same,"viability, T/C",[4],71.6%
same,"viability, T/C",[5],37.3%
same,"viability, T/C",[6],27.3%
same,"viability, T/C",[7],86.9%
same,"viability, T/C",[8],61.7%
same,"viability, T/C",[9],48.8%
same,"viability, T/C",[10],42.6%
same,"viability, T/C",[11],34.5%
same,"viability, T/C",[12],22.8%
same,"viability, T/C",[13],27.4%
same,"viability, T/C",[14],22.6%
same,"viability, T/C",[15],21.3%
same,"viability, T/C",[16],15.6%
same,"viability, T/C",[17],13.4%
same,"viability, T/C",[18],7.64%
same,"viability, T/C",[19],5.08%
same,"viability, T/C",[20],4.84%
same,"viability, T/C",[21],10.1%
same,"viability, T/C",[22],7.13%
same,"viability, T/C",[23],6.18%
same,"viability, T/C",[24],5.7%
same,"viability, T/C",[25],7.69%
same,"viability, T/C",[26],7.5%
same,"viability, T/C",[27],9.02%
same,"viability, T/C",[28],9.74%
same,"viability, T/C",[29],6.25%
same,"viability, T/C",[30],6.05%
same,"viability, T/C",[31],2.13%
same,"viability, T/C",[32],3.81%
same,"viability, T/C",[33],3.72%
same,"viability, T/C",[34],1.54%
same,"viability, T/C",[35],2.76%
same,"viability, T/C",[36],1%
CC1COCCN1c1cc(C2(S(C)(=N)=O)CC2)nc(-c2ccnc3[nH]ccc23)n1 (centres undefined) + CN1CCN(c2cc(C(=O)Nc3cc4cc(-c5cnn(C)c5)ccc4cn3)ccn2)CC1,IC50,second compound 0.0316 µM,2620 nM
same,IC50,second compound 0.1 µM,1420 nM
same,IC50,second compound 0.316 µM,< 31.6 nM
same,IC50,second compound 1 µM,< 31.6 nM
same,IC50,second compound 3.16 µM,< 31.6 nM
same,IC50,second compound 10 µM,< 31.6 nM
same,"viability, T/C",[1],101%
same,"viability, T/C",[2],95.9%
same,"viability, T/C",[3],79.1%
same,"viability, T/C",[4],60.8%
same,"viability, T/C",[5],45.9%
same,"viability, T/C",[6],46.1%
same,"viability, T/C",[7],68.2%
same,"viability, T/C",[8],75.6%
same,"viability, T/C",[9],59%
same,"viability, T/C",[10],53.6%
same,"viability, T/C",[11],45.4%
same,"viability, T/C",[12],41.2%
same,"viability, T/C",[13],34.3%
same,"viability, T/C",[14],41.9%
same,"viability, T/C",[15],36%
same,"viability, T/C",[16],38.4%
same,"viability, T/C",[17],27.2%
same,"viability, T/C",[18],24.7%
same,"viability, T/C",[19],9.71%
same,"viability, T/C",[20],9.35%
same,"viability, T/C",[21],7.68%
same,"viability, T/C",[22],7.29%
same,"viability, T/C",[23],7.44%
same,"viability, T/C",[24],10.3%
same,"viability, T/C",[25],8.58%
same,"viability, T/C",[26],5.23%
same,"viability, T/C",[27],6.65%
same,"viability, T/C",[28],9.55%
same,"viability, T/C",[29],9.82%
same,"viability, T/C",[30],9.3%
same,"viability, T/C",[31],4.43%
same,"viability, T/C",[32],4.71%
same,"viability, T/C",[33],5.12%
same,"viability, T/C",[34],4.78%
same,"viability, T/C",[35],4.88%
same,"viability, T/C",[36],4.15%
